Data published in patent publication US20240122865A1, “Methods of Protecting RNA” (Pfizer Inc., priority 2021, published 2024).

What was measured:
Format in all cases: biochemical, Trichoderma atroviride
[1] = tested on: FgenL model RNA; settings: percent protection, pH 11.0, 44° C., 16 hours, n = 2
Method: (§1) The ddPCR assays measure RNA integrity by converting intact RNA to cDNA by reverse transcription, then performing digital PCR in thousands of nanoliter-sized droplets for each sample. PCR is performed within each droplet, which allows for more sensitive detection of subtle changes in RNA concentration compared to traditional PCR or qPCR. Additionally, primers/probes specific to the 5′ end of the RNA/cDNA transcript(s) are used to assess fragment integrity—e.g. degraded RNA will have fewer 5′ positive droplets. The BioRad QX200 Droplet Digital PCR System was used for the ddPCR workflow.
(§2) Basic assay procedure: RNA samples (Chi18 or FgenL fragments) were diluted to 25 fg/μL or 10 fg/μL, respectively, in 50 mM […] buffer pH 11.0. Amino acid stocks were made up in 50 mM CAPS buffer, pH 11.0 and subsequently re-adjusted to pH 11.0, post solubilization. Amino acid stocks were tested in a dose-response format to determine EC50. An amino acid dilution plate containing a ˜300 mM (or appropriate) top-concentration of amino acid in 50 mM CAPS buffer was serially (half-log) diluted for 10 times. 0.6 μL of this compound dilution plate was spotted into a 96-well PCR plate (Thermo). Sample RNAs were added (6 μL) and incubated with test amino acid as described below.
(§3) Degradation reaction: Treated RNAs were incubated for 16 hours at 30° C. for Chi18 samples or 44° C. for FgenL samples. Upon completion of the degradation reaction, cDNA was made from the intact RNA by Reverse Transcription and ddPCR run for each sample (96 well plates). Positive 5′ droplet values were divided by the total accepted droplet values for each sample and a ratio value generated for each sample.
(§4) EC50 was determined by using a four parameter logistic equation: Y=A+((B−A)/(1+(C/X)D)); where Y is percent protection, X is compound concentration, A and B are minimum and maximum asymptotes, respectively, C is EC50, and D is Hill slope.

[2] = tested on: Chi18 model RNA; experiment: TapeStation Assay, Chi18 model RNA; parameters: Conc. chi18#1 / Conc. chi18#2: unit not given here; settings: for % Control N = 1 / % Control N = 2 / % Control Avg.: Chi18 RNA, 20 mM amino acids, 50 mM CAPS pH 11, 50° C. 15 min; for % Control N = 1 / % Control N = 2: vs Time 0; for % Control Avg.: vs Time 0, Avg N=2; for Conc. chi18#1 / Conc. chi18#2: intact Chi18 RNA after 15 min at 50° C.; for Conc. chi18#1: 20 mM amino acids in 50 mM CAPS pH 11, run #1; for Conc. chi18#2: 20 mM amino acids in 50 mM CAPS pH 11, run #2
Method: (§5) These assays were performed with amino acids and compared to a no-degradation baseline control to gauge degree of protection imparted by the amino acid. Multiple functional assay approaches were used where differing endpoints were measured including a droplet digital PCR (ddPCR) assay where intact RNA sequence was quantitated, a size exclusion base hydrolysis degradation assay that used a size exclusion column to determine the degree of degradation occurring to an mRNA construct, and finally, a TapeStation assay that utilizes capillary electrophoresis and optical detection to measure intact RNA. […] Affinity selection by mass spectrometry (ASMS), native electrospray ionization mass spectrometry (nESI-MS) and nuclear magnetic resonance (NMR) may be used as several complementary approaches to ascertain compound binding to RNA. The latter techniques utilize MS to measure mass of bound compound alone (ASMS), or mass of RNA and bound compound (nESI-MS). The nESI-MS and NMR studies may be conducted to provide direct analytical quantification of resulting complex via measurement of mass (nESI-MS) or chemical shifts (NMR). The ASMS experiment is conducted to determine saturation binding of the compound to RNA where resulting apparent binding constants (KD,App) may be generated. Further descriptions of the functional and binding assays are provided in the section below.
(§6) In principle, samples are loaded to the instrument where electrophoresis separates component RNA's on the basis of mass, and subsequently analyzes these optically as they travel through the capillary.
(§7) RNA samples were diluted to the appropriate concentration to fall within the linear range of detection for the RNA ScreenTape Assay. Model Chi18 or FgenL RNAs were diluted to 50 ng/μL in 50 mM CAPS buffer pH 11. Amino acid stocks were made up in 50 mM CAPS pH 11 and re-adjusted to >pH 11 after solubilization. […] The samples were aliquoted to PCR tubes for each time point (Time 0 or 15 minutes). Degradation reaction: Samples were incubated at 50° C. for 0 to 15 minutes in a thermocycler, removed at the appropriate time point and placed on ice. Time 0 samples remained on ice.

[3] = target: Chi18 model RNA; experiment: Droplet Digital Polymerase Chain Reaction (ddPCR) Assay, Chi18; settings: percent protection, pH 11.0, 30° C., 16 hours, n = 2
Method: as §1, §2, §3, §4

[4] = tested on: FgenL model RNA; experiment: TapeStation Assay, FgenL model RNA; parameters: Conc. FgenL#1 / Conc. FgenL#2: unit not given here; settings: for % Control N = 1 / % Control N = 2 / % Control Average: FgenL RNA, 20 mM amino acids, 50 mM CAPS pH 11, 50° C. 15 min; for % Control N = 1 / % Control N = 2: vs Time 0; for Conc. FgenL#1 / Conc. FgenL#2: intact FgenL RNA after 15 min at 50° C.; for Conc. FgenL#1: 20 mM amino acids in 50 mM CAPS pH 11, run #1; for Conc. FgenL#2: 20 mM amino acids in 50 mM CAPS pH 11, run #2; for % Control Average: vs Time 0, Avg N=2
Method: as §5, §6, §7

[5] = tested on: FgenL mRNA construct; experiment: Size Exclusion Base Hydrolysis Degradation Assay, FgenL; settings: 25 mM amino acid; for T0 R1 peak area at 250 nm: FgenL 0.1 mg/mL, 50 mM CAPS, T=0, replicate 1; for T2 Avg, peak area as percentage of T=0 / T2 R1 peak area at 250 nm / T10 Avg, peak area as percentage of T=0 / T10 R1 peak area at 250 nm / T24 Avg, peak area as percentage of T=0 / T24 R1 peak area at 250 nm / T0 Avg, peak area as percentage of T=0: FgenL; for T2 Avg, peak area as percentage of T=0 / T2 R1 peak area at 250 nm / T10 Avg, peak area as percentage of T=0 / T10 R1 peak area at 250 nm / T24 Avg, peak area as percentage of T=0 / T24 R1 peak area at 250 nm: 50 mM CAPS pH 11, room temperature; for T2 Avg, peak area as percentage of T=0 / T2 R1 peak area at 250 nm: 2 hrs; for T2 R1 peak area at 250 nm / T10 R1 peak area at 250 nm / T24 R1 peak area at 250 nm: replicate 1; for T10 Avg, peak area as percentage of T=0 / T10 R1 peak area at 250 nm: 10 hrs; for T24 Avg, peak area as percentage of T=0 / T24 R1 peak area at 250 nm: 24 hrs; for T0 Avg, peak area as percentage of T=0: T=0 (reference)
Method: Basic assay procedure: RNA samples were diluted to 1.0 mg/mL in DNAase/RNAase free water. Amino acids were dissolved in water to a stock solution of 100 mM and a solution of 500 mM CAPS pH 11 was used. The two mRNA constructs tested were FgenL and Chi18. Each individual sample volume was 50 μL. To determine the amount of 1 M NaOH needed to adjust the final pH to 11.0 after the addition of all sample components, the sample volume was increased 100 fold (5 mL), the volume of 1 M NaOH recorded and this value was translated back down to the 50 μL sample volume.
The mRNA and amino acid were allowed to incubate for one hour prior to the addition of CAPS pH 11. All steps of the assay were conducted at room temperature.
Degradation reaction: After the CAPS addition, the samples were injected onto the Waters H-Class UPLC system to record the first timepoint, T=O. This resulting chromatogram was processed by integrating the area of absorbance at 250 nm for the mRNA construct. Immediately following this timepoint, the pH was adjusted to 11. Subsequent time points (2 hrs, 10 hrs, and 24 hrs) recorded the Absorbance Units (peak area) at 250 nm as a percentage of the peak area determined at T=O. Integration of the chromatogram for subsequent timepoints was conducted by analyzing the area of absorbance at 250 nm contained within the same time window in which the peak eluted in T=0 for the 100% intact mRNA.

| Structure (SMILES) | EC50 [1] [mM] | % Control N = 1 [2] [%] | % Control N = 2 [2] [%] | % Control Avg. [2] [%] | Conc. chi18#1 [2] | Conc. chi18#2 [2] | EC50 [3] [mM] | % Control N = 1 [4] [%] | % Control N = 2 [4] [%] | Conc. FgenL#1 [4] | Conc. FgenL#2 [4] | T0 R1 peak area at 250 nm [5] | T2 Avg, peak area as percentage of T=0 [5] [%] | T2 R1 peak area at 250 nm [5] | T10 Avg, peak area as percentage of T=0 [5] [%] | T10 R1 peak area at 250 nm [5] | T24 Avg, peak area as percentage of T=0 [5] [%] | T24 R1 peak area at 250 nm [5] | T0 Avg, peak area as percentage of T=0 [5] [%] | % Control Average [4] [%] |
| --- | --- | --- | --- | --- | --- | --- | --- | --- | --- | --- | --- | --- | --- | --- | --- | --- | --- | --- | --- | --- |
| C[C@H](N)C(=O)O [Alanine] | > 30 | 35.3 | 51.4 | 43.3 | 18.8 | 27.2 | > 30 | 28.8 | 23.2 | 9.93 | 8.05 | 17478 | 44.3 | 7051 | 0.0 | 0 | 0.0 | 0 | 100.0 | – |
| N=C(N)NCCC[C@H](N)C(=O)O [Arginine] | > 30 | 5.2 | 4.7 | 4.9 | 2.78 | 2.46 | 7.6 | 4.2 | 3.3 | 1.46 | 1.15 | 14624 | 0.0 | 0 | 0.0 | 0 | 0.0 | 0 | 100.0 | 3.8 |
| NC(=O)C[C@H](N)C(=O)O [Asparagine] | – | 21.0 | 26.7 | 23.8 | 11.2 | 14.1 | 4.9 | 21.9 | 15.0 | 7.56 | 5.19 | 14320 | 35.9 | 6791 | 0.0 | 0 | 0.0 | 0 | 100.0 | 18.4 |
| N[C@@H](CC(=O)O)C(=O)O [Aspartic acid] | – | 52.5 | 53.5 | 53.0 | 28 | 28.3 | 6.1 | 107.0 | 91.1 | 36.9 | 31.6 | 17497 | 0.0 | 0 | 0.0 | 0 | 0.0 | 0 | 100.0 | 99.0 |
